Assay results taken from patent publication US8188008B2, “Herbicidally and insecticidally active 4-phenyl-substituted pyridazinones” (Bayer Cropscience AG, priority 2008, dated 2012).

System: green peach aphid (Myzus persicae)
Assay: Myzus test (MYZUPE spray treatment)
Assay type: in vivo
Conditions: spray treatment of Chinese cabbage discs, application rate 500 g/ha; 100% = all aphids killed
Experimental: Myzus Test (MYZUPE Spray Treatment) [table] To produce a suitable preparation of active compound, 1 part by weight of active compound is mixed with the stated amounts of solvents and emulsifier, and the concentrate is diluted with emulsifier-containing water to the desired concentration. Discs of Chinese cabbage (Brassica pekinensis) which are infested by all stages of the green peach aphid (Myzus persicae) are sprayed with an active compound preparation of the desired concentration. After the desired period of time, the effect in % is determined. 100% means that all aphids have been killed; 0% means that none of the aphids have been killed.

In the case of Cn1ncc(O)c(-c2ccc(Cl)c(Cl)c2)c1=O [I-1-a-4], the “effect in % (aphids killed)” value is reported as “at least 80%”.
